As a reminder, the IC50 is the concentration that gives 50% inhibition.

One test concerns the target P70S6K (T412E mutant) (Homo sapiens (Human), UniProt P23443, T412E). Description: P70S6K enzyme assay. To be noted: read-out: IC50 p70S6K. It counts as biochemical. Summed up: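 Read-out is the substrate/phosphopeptide ratio from mobility-shift electrophoresis on a LabChip 3000.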
A further test addresses His-AKT (Full Length) (Homo sapiens (Human), UniProt P31749). Description: AKT enzyme assay. Format: biochemical. To be noted: read-out: IC50 AKT.

Each structure is given as a SMILES string.

His-AKT (Full Length), sequence (P31749 whole entry): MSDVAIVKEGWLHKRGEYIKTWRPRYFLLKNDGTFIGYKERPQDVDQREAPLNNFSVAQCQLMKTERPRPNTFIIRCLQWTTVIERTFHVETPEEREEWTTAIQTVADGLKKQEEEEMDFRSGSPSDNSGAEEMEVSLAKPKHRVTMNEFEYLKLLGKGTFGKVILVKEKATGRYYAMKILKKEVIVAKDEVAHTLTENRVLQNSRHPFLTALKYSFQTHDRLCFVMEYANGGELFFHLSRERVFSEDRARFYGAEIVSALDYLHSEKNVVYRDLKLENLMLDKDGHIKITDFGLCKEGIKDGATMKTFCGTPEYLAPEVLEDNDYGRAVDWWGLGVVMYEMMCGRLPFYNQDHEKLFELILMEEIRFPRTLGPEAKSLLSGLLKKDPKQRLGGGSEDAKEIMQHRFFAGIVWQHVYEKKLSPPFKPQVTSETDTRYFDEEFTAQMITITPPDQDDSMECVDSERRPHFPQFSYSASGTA
P70S6K (T412E mutant), sequence (P23443 whole entry T412E): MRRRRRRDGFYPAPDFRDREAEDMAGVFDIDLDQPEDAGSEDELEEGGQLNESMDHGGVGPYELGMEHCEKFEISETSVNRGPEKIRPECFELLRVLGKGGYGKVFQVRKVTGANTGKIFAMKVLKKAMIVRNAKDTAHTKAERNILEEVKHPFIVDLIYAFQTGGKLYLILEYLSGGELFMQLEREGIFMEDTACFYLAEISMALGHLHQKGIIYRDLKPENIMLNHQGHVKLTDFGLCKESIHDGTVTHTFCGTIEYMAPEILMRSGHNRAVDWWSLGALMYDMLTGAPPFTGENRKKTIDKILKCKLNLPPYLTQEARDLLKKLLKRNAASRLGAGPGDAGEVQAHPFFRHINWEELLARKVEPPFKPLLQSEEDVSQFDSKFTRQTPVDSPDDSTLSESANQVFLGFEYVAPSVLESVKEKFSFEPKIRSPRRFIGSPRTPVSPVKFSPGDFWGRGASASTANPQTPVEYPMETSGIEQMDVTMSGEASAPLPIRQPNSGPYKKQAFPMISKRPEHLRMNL

With `N#Cc1c(N)ncnc1N1CCC(c2nc(-c3ccc4[nH]ncc4c3)cn2CCN2CCC2)CC1` [Compound 207, 4-Amino-6-{4-[1-(2-azetidin-1-yl-ethyl)-4-(1H-indazol-5-yl)-1H-imidazol-2-yl]-piperidin-1-yl}-pyrimidine-5-carbonitrile], the 50% inhibitory concentration (IC50) on P70S6K (T412E mutant) turned out to be 22 nM; at His-AKT (Full Length), 105 nM.

As for `CCc1c(N)ncnc1N1CCC(c2nc(-c3ccc(F)c(C(F)(F)F)c3)cn2CCN2CCCC2)CC1` [Compound 208], the IC50 was determined as 3.2 nM at P70S6K (T412E mutant) and 7.6 nM at His-AKT (Full Length).

Consider `Nc1ncnc(N2CCC(c3nc(-c4ccc(F)c(C(F)(F)F)c4)cn3CCN3CCCC3)CC2)c1Cl` [Compound 209], for which the IC50 at P70S6K (T412E mutant) came out at 3.1 nM; on His-AKT (Full Length) it was 2.2 nM.

Turning to `Nc1ncnc(N2CCC(c3nc(-c4ccc(O)c(C(F)(F)F)c4)cn3CCN3CCCC3)CC2)c1Cl` [Compound 210], the results for the half-inhibitory concentration (IC50) on P70S6K (T412E mutant) and at His-AKT (Full Length) were 3.7 nM and 3 nM, respectively.

With `Nc1ncnc(N2CCC(c3nc(-c4ccc(F)c(C(F)(F)F)c4)cn3CCN3CCCC3)CC2)c1F` [Compound 211], the IC50 on P70S6K (T412E mutant) and at His-AKT (Full Length) was 23 nM each time.

With `C=C(C)c1c(N)ncnc1N1CCC(c2nc(-c3ccc(F)c(C(F)(F)F)c3)cn2CCN2CCCCC2)CC1` [Compound 212], the IC50 at P70S6K (T412E mutant) turned out to be 6.7 nM; at His-AKT (Full Length), 16 nM.

In the case of `C=C(C)c1c(N)ncnc1N1CCC(c2nc(-c3ccc(F)c(C(F)(F)F)c3)cn2CCN2CCCC2)CC1` [Compound 213], the IC50 at P70S6K (T412E mutant) was found to be 7.9 nM; at His-AKT (Full Length), 20 nM.

Turning to `Nc1cc(N2CCC(c3nc(-c4ccc(F)c(C(F)(F)F)c4)cn3CCN3CCCC3)CC2)ncn1` [Compound 214], the IC50 was determined as 50 nM at P70S6K (T412E mutant) and 180 nM at His-AKT (Full Length).

As for `Cc1c(N)ncnc1N1CCC(c2nc(-c3ccc(F)c(C(F)(F)F)c3)cn2CCN2CCCC2)CC1` [Compound 215], the half-maximal inhibitory concentration (IC50) on P70S6K (T412E mutant) was 6.1 nM; on His-AKT (Full Length), 10 nM.

Regarding `Nc1ncnc(N2CCC(c3nc(-c4ccc(F)c(C(F)(F)F)c4)cn3CCN3CCCCC3)CC2)c1Cl` [Compound 216], the IC50 at P70S6K (T412E mutant) was 3.8 nM; at His-AKT (Full Length) it was 9 nM.

As to `Nc1ncnc(N2CCC(c3nc(-c4ccc(F)c(C(F)(F)F)c4)cn3CCN3CCC3)CC2)c1Br` [Compound 217], the IC50 on P70S6K (T412E mutant) amounted to 1.5 nM; at His-AKT (Full Length) it was 2.3 nM.

On to `Nc1ncnc(N2CCC(c3nc(-c4ccc(F)c(C(F)(F)F)c4)cn3CCN3CCC3)CC2)c1Cl` [Compound 218], for which the half-maximal inhibitory concentration (IC50) came out at 0.6 nM at P70S6K (T412E mutant) and 1 nM on His-AKT (Full Length).

With `Nc1ncnc(N2CCC(c3nc(-c4ccc(F)c(C(F)(F)F)c4)cn3CCN3CCC3)CC2)c1-c1ccc(F)cc1` [Compound 219], the half-maximal inhibitory concentration (IC50) at P70S6K (T412E mutant) amounted to 2.4 nM; at His-AKT (Full Length) it was 2.3 nM.

Regarding `C=Cc1c(N)ncnc1N1CCC(c2nc(-c3ccc(F)c(C(F)(F)F)c3)cn2CCN2CCC2)CC1` [Compound 220], the 50% inhibitory concentration (IC50) was determined as 2.6 nM on P70S6K (T412E mutant) and 4.2 nM on His-AKT (Full Length).

For the compound `Nc1cc(N2CCC(c3nc(-c4ccc(F)c(C(F)(F)F)c4)cn3CCN3CCC3)CC2)ncn1` [Compound 221], the IC50 at P70S6K (T412E mutant) came out at 21 nM; at His-AKT (Full Length), 71 nM.

Consider `COC(=O)c1ccc(-c2c(N)ncnc2N2CCC(c3nc(-c4ccc(F)c(C(F)(F)F)c4)cn3CCN3CCC3)CC2)cc1` [Compound 222], for which the IC50 at P70S6K (T412E mutant) was 11 nM; at His-AKT (Full Length), 43 nM.

For `COC(=O)c1ccc(-c2c(N)ncnc2N2CCC(c3nc(-c4ccc(F)c(C(F)(F)F)c4)cn3CCN3CCCC3)CC2)cc1` [Compound 223], the IC50 came to 21 nM at P70S6K (T412E mutant) and 78 nM on His-AKT (Full Length).

With `Nc1ncnc(N2CCC(c3nc(-c4ccc(F)c(C(F)(F)F)c4)cn3CCN3CCC3)CC2)c1-c1ccc(C(=O)O)cc1` [Compound 224], the values for the half-inhibitory concentration (IC50) on P70S6K (T412E mutant) and on His-AKT (Full Length) were 5.7 nM and 12 nM, respectively.

With `Nc1ncnc(N2CCC(c3nc(-c4ccc(F)c(C(F)(F)F)c4)cn3CCN3CCCC3)CC2)c1-c1ccc(C(=O)O)cc1` [Compound 225], the figures for the half-inhibitory concentration (IC50) on P70S6K (T412E mutant) and at His-AKT (Full Length) were 5.8 nM and 12 nM, respectively.

Take `Nc1ncnc(N2CCC(c3nc(-c4ccc(F)c(F)c4)cn3CCN3CCCC3)CC2)c1Br` [Compound 226]: the concentration for half-maximal inhibition (IC50) on P70S6K (T412E mutant) was 1.3 nM; on His-AKT (Full Length) it was 1.7 nM.

On to `Nc1ncnc(N2CCC(c3nc(-c4ccc(F)cc4)cn3CCN3CCCC3)CC2)c1Br` [Compound 227], for which the IC50 amounted to 1.4 nM at P70S6K (T412E mutant) and 2.9 nM at His-AKT (Full Length).

`Nc1ncnc(N2CCC(c3nc(-c4cccc(F)c4)cn3CCN3CCCC3)CC2)c1Br` [Compound 228]: the concentration for half-maximal inhibition (IC50) on P70S6K (T412E mutant) is 1.4 nM; on His-AKT (Full Length) it was 5.9 nM.

As for `Nc1ncnc(N2CCC(c3nc(-c4ccc(C(F)(F)F)c(F)c4)cn3CCN3CCCC3)CC2)c1Br` [Compound 229], the concentration for half-maximal inhibition (IC50) at P70S6K (T412E mutant) was 6.3 nM; on His-AKT (Full Length), 71 nM.

As for `CCc1c(N)ncnc1N1CCC(c2nc(-c3ccc(F)c(C(F)(F)F)c3)cn2CCN2CCC2)CC1` [Compound 230], the IC50 at P70S6K (T412E mutant) was 2.1 nM; on His-AKT (Full Length), 4.1 nM.

In the case of `CCc1c(N)ncnc1N1CCC(c2nc(-c3cccc(F)c3)cn2CCN2CCCC2)CC1` [Compound 231], the IC50 was 3.6 nM at P70S6K (T412E mutant) and 46 nM at His-AKT (Full Length).

In the case of `CCc1c(N)ncnc1N1CCC(c2nc(-c3ccc(F)cc3)cn2CCN2CCCC2)CC1` [Compound 232], the IC50 at P70S6K (T412E mutant) came to 2.3 nM; at His-AKT (Full Length) it was 20 nM.

For `CCc1c(N)ncnc1N1CCC(c2nc(-c3ccc(F)c(F)c3)cn2CCN2CCCC2)CC1` [Compound 233], the figures for the IC50 on P70S6K (T412E mutant) and at His-AKT (Full Length) were 1.1 nM and 8.2 nM, respectively.

`CCc1c(N)ncnc1N1CCC(c2nc(-c3ccc(C(F)(F)F)c(F)c3)cn2CCN2CCCC2)CC1` [Compound 234]: the IC50 on P70S6K (T412E mutant) stood at 13 nM; at His-AKT (Full Length), 470 nM.

As to `Nc1ncnc(N2CCC(c3nc(-c4ccc(C(F)(F)F)c(F)c4)cn3CCN3CCCC3)CC2)c1Cl` [Compound 235], the half-inhibitory concentration (IC50) is 10 nM on P70S6K (T412E mutant) and 1000 nM at His-AKT (Full Length).

As for `Nc1ncnc(N2CCC(c3nc(-c4cccc(F)c4)cn3CCN3CCCC3)CC2)c1Cl` [Compound 236], the IC50 at P70S6K (T412E mutant) is 0.5 nM; on His-AKT (Full Length), 8.1 nM.

Take `Nc1ncnc(N2CCC(c3nc(-c4ccc(F)cc4)cn3CCN3CCCC3)CC2)c1Cl` [Compound 237]: the figures for the IC50 on P70S6K (T412E mutant) and at His-AKT (Full Length) were 0.8 nM and 3.3 nM, respectively.

As to `Nc1ncnc(N2CCC(c3nc(-c4ccc(F)c(F)c4)cn3CCN3CCCC3)CC2)c1Cl` [Compound 238], the values for the 50% inhibitory concentration (IC50) on P70S6K (T412E mutant) and at His-AKT (Full Length) were 0.9 nM and 3.2 nM, respectively.

Regarding `C=Cc1c(N)ncnc1N1CCC(c2nc(-c3ccc(C(F)(F)F)c(F)c3)cn2CCN2CCCC2)CC1` [Compound 239], the IC50 was determined as 4.4 nM on P70S6K (T412E mutant) and 210 nM on His-AKT (Full Length).

For `C=Cc1c(N)ncnc1N1CCC(c2nc(-c3cccc(F)c3)cn2CCN2CCCC2)CC1` [Compound 240], the half-inhibitory concentration (IC50) at P70S6K (T412E mutant) was 0.9 nM; on His-AKT (Full Length), 21 nM.

`C=Cc1c(N)ncnc1N1CCC(c2nc(-c3ccc(F)cc3)cn2CCN2CCCC2)CC1` [Compound 241]: the figures for the IC50 on P70S6K (T412E mutant) and on His-AKT (Full Length) were 2.9 nM and 16 nM, respectively.

Turning to `C=Cc1c(N)ncnc1N1CCC(c2nc(-c3ccc(F)c(F)c3)cn2CCN2CCCC2)CC1` [Compound 242], the concentration for half-maximal inhibition (IC50) on P70S6K (T412E mutant) worked out at 1.4 nM; at His-AKT (Full Length), 9.7 nM.

With `Nc1cc(N2CCC(c3nc(-c4ccc(F)c(F)c4)cn3CCN3CCCC3)CC2)ncn1` [Compound 243], the concentration for half-maximal inhibition (IC50) on P70S6K (T412E mutant) amounted to 18 nM; at His-AKT (Full Length), 63 nM.

As to `Nc1cc(N2CCC(c3nc(-c4cccc(F)c4)cn3CCN3CCCC3)CC2)ncn1` [Compound 244], the IC50 at P70S6K (T412E mutant) amounted to 25 nM; on His-AKT (Full Length) it was 210 nM.

For the origin of these results see patent publication US9145392B2, “Imidazole amines as modulators of kinase activity” (Merck Patent GmbH, priority 2011, dated 2015).
